Read-outs that look alike come from different tables or passages of the source.
How the values were obtained:
[1] = cited from earlier work
[2] = Octanol-water partition coefficient; assay type: physicochemical
Method: […] The resulting biphasic solution was shaken vigorously for two hours at which point 400 μL of the octanol layer and 400 μL of the water layer were removed. The solvent from each sample was removed under reduced pressure and the mass of the compound in the octanol sample was divided by the mass of the compound in the water sample. This experiment was repeated in triplicate, and the results were averaged to give the Log (Poct/wat) values. All complexes were completely soluble in the mixture of octanol and water.

[3] = pH of aqua solution of contrast agent; assay type: physicochemical
Method: For preparation of aqua solution of contrast agent, the as-synthesized cobalt/glycine crystallites were dissolved in distillated water (0.3-10 wt %) and stirred at the room temperature with a magnetic stir bar for 1 h and then sonicated for 30 min.
The value of pH varied from 2.6 to 6.5.

[4] = Viscosity of contrast agent solution (Brookfield viscometer); assay type: physicochemical; details: room temperature
Method: Viscosity of contrast agent solution was measured at room temperature by using Brookfield digital viscometer DV-II.

[5] = Surface tension of contrast agents (Fisher 21 tensiometer); assay type: physicochemical
Text: The Fisher 21 tensiometer was used to measure surface tension of contrast agents with accuracy t within +/−0.25%.

[6] = Magnetic properties of contrast agent solutions by VSM; assay type: physicochemical
Method: The magnetic properties of contrast agent solutions were determined by VSM (Vibrating Sample Magnetometer) at room temperature and magnetic field up to 1.5 T.
FIG. 20a-20d show the magnetic properties of various aqua solutions of Co/glycine with concentration 1, 3, 5, 8 and 10%.

[7] = MR relaxation measurements of C4 complex at 1.5 T; assay type: physicochemical; details: for T1 (ms) μ / T2 (ms) μ: 1.5T, 23° C.
Method: (§1) MR imaging measurements were performed on a 1.5 T clinical scanner (Excite HD, GEHT, Waukesha, Wis.) to characterize the relaxation properties of the new cobalt complex after each new modification of the C4 chemistry was made. Several iterations were performed before obtaining a stable sample. Additional measurements at 3.0 T (Excite HD, GEHT, Waukesha, Wis.) were made once the design of the C4 complex was stable. Each session or iteration (n=5) took approximately 2 hours to collect all the relaxation data.
[…] Theses solutions were placed in a water bath and imaged at room temperature (23° C.). Experiments were performed to ascertain the spin-lattice relaxivity (R1), spin-spin relaxivity (R2) and true spin-spin relaxivity (R2*) at 1.5 T and 3 T using a volume knee coil to excite and receive the MR signal.
(§2) R1 measurements were performed using a spin-echo inversion recovery (SE-IR) sequence with parameters: Inversion Time (TI)={0.05, 0.1, 0.2, 0.3, 0.4, 0.5, 0.6, 0.7, 0.8, 0.9, 1.0, 1.2, 1.4, 1.6, 1.8, 2.0} sec, Pulse Repetition Time (TR)=5000, Time to Echo (TE)=10 ms, slice thickness=3 mm, acquisition matrix=256 (frequency)×128 (phase), receiver bandwidth (rBW)=±15 kHz and the number of excitations (NEX)=1.
(§3) R2 measurements were carried out using an SE sequence with parameters: TE={15, 20, 40, 60, 100, 150, 200, 250, 300 and 500 ms}, TR=5000 ms, slice thickness=3 mm, matrix size=256×128, rBW=±15 kHz and NEX=1.
(§4) The slopes of R1 and R2 curve versus concentration were used to determine the relaxivity (r1 and r2) in mM^−1 s^−1 as shown in the following tables. A weighted least-linear squares fitting routine was written in MATLAB to calculate the fit parameters accounting for the uncertainty as well as calculating the net uncertainty in the derived measurement. Note that in the final quantitative analysis, R2* measurements are excluded since the samples seemed to have interfering magnetic effects that could alter results.

[8] = MR relaxation measurements of C4 complex at 3.0 T; assay type: physicochemical; details: 3.0T; for T1 (ms) μ / T2 (ms) μ: 23° C.
Method: as §1
Concentrations of the complex were prepared in 0.1%, 0.3%, 0.5%, 0.75% and 1.0% solutions provided by the UH group. Theses solutions were placed in a water bath and imaged at room temperature (23° C.). Experiments were performed to ascertain the spin-lattice relaxivity (R1), spin-spin relaxivity (R2) and true spin-spin relaxivity (R2*) at 1.5 T and 3 T using a volume knee coil to excite and receive the MR signal.
as §2, §3, §4

[9] = Characterization of the C4 complex at 7 T; assay type: physicochemical; set-up: T2 / T1 / T2* / T2*-2: unit not given here; details: for T2*-2: second T2* measurement
Method: […] Characteristic T1, T2, and T2* relaxation times of the preparations were measured at each concentration. T1 measurements were made using a fast spin-echo saturation-recovery sequence (TE=63 ms; TR=400 ms, 500 ms, 1000 ms, 1500 ms, 2500 ms, 500 ms; FOV=3.2 cm×3.2 cm; matrix=64×64; echo train length=12; slice thickness=1 mm). T2 measurements were made using a CPMG multi-spin-echo sequence (TE=n×15 ms, 1≦n≦24; TR=1100 ms). T2* measurements were made using a multi-gradient echo sequence (TE=1.5 ms+n×[…], 0≦n≦15; TR=500 ms, 4000 ms). The image matrix and slice prescription for all measurements were kept constant. The characteristic T1, T2, and T2* relaxation time constants of each compartment were measured using Paravision 4.0, and the relaxivities of the contrast agent were estimated by fitting measured data to the Solomon-Bloembergen-Morgan model using Matlab.

[10] = Temporal stability of R1 of the cobalt complex; assay type: physicochemical; details: taken 54 days apart
[11] = T1 relaxivity of Gd-chelated polymeric contrast agent at 1.5 T; assay type: physicochemical
Text: A Gd-chelated polymeric MRI contrast agent 20 (Gd Hydrogel) based on a biodegradable, biocompatible poly(L-glutamic acid) (L-PG) backbone was also synthesized and characterized. […] “Blooming” occurs with MR imaging when the contrast agent 20 is encapsulated by titanium and cannot be visualized due to the susceptibility artifacts
To characterize the contrast agents 20, they were filtrated and injected into the glass capillary tube with 4 mm in length and OD=0.8 mm, ID=0.5 mm with volume of 0.5-1 μL. Water-proton relaxivities were measured at variable temperature (278-335 K), and as a function of magnetic field (1.5 T, 3 T, 4.7 T, and 7 T). Slight differences between the relaxivities of these agents at different field strengths will require slightly different concentrations for optimal visibility at these field strengths. By pH dependency of the proton relaxivities we will evaluate the synthesized CAM for pH-responsive MRI contrast agent 20 applications. Although 4.7 T is not a field strength commonly associated with clinical MRI, it complements the data collected at more clinically relevant field strengths and helps to identify trends in agent relaxivity.

[12] = 1.5 T (23° C.), De Bazelaire 2004

In the case of `CNC[C@H](O)[C@@H](O)[C@H](O)[C@H](O)CO.CNC[C@H](O)[C@@H](O)[C@H](O)[C@H](O)CO.O=C([O-])CN(CCN(CC(=O)[O-])CC(=O)O)CCN(CC(=O)[O-])CC(=O)O.[Gd+3]` [Magnevist], the r2/r1 [1, 12] is listed as 1.12±0.01, the “relaxivity r1” value [1, 12] is listed as 4.68 ± 0.06 mM/s and the “relaxivity r2” value [1, 12] is listed as 5.57 ± 0.07 mM/s. The relaxivity ([1]; 1.5 T in phosphate-buffered saline, Unger 1999) was 4.1 mM⁻¹ s⁻¹ and the T1 relaxivity ([1]; 7 T, for reference) was “approximately 5.3 (mM·s)^−1”.
With (CoCl2)n(C2H5NO2)1-n [Example C4] the “Partition Coefficient, Log P” value ([2]; contrast agent solution 0.5 %) was “(−0.15) −”, the “Partition Coefficient, Log P” value ([2]; contrast agent solution 5 %) was “(−0.09)” and the pH ([3]; contrast agent solution 0.5 %) was 6.1. It also gave a pH ([3]; contrast agent solution 5 %) of 3.2, a Viscosity ([4]; contrast agent solution 0.5 %) of 1.0 cP and a Viscosity ([4]; contrast agent solution 5 %) of 1.1 cP. The Surface tension ([5]; contrast agent solution 0.5 %) was 72.8 dynes/cm, the Surface tension ([5]; contrast agent solution 5 %) was 73.6 dynes/cm and the Magnetic properties ([6]; contrast agent solution 0.5 %) was “paramagnetic”. For the same compound, the Magnetic properties ([6]; contrast agent solution 5 %) was “paramagnetic”, the T1 relaxation time ([7]; 0.1%-8.25 mM) was 782 ms and the “relaxivity r1” value ([7]; 1.5 T) was 0.086 ± 0.006 mM/s. The “relaxivity r1, Slope μ” value ([7]; 1.5 T) was 0.086 mM⁻¹ s⁻¹, the “relaxivity r2” value ([7]; 1.5 T) was 0.097 ± 0.010 mM/s and the “T1 (ms) μ” value ([7]; 0.10 % Wt, 8.25 mM) was 782.0 ms. The “T2 (ms) μ” value ([7]; 0.10 % Wt, 8.25 mM) was 836.0 ms, the “T1 (ms) μ” value ([7]; 0.30 % Wt, 24.76 mM) was 379.0 ms and the “T2 (ms) μ” value ([7]; 0.30 % Wt, 24.76 mM) was 354.0 ms. The “T1 (ms) μ” value ([7]; 0.50 % Wt, 41.27 mM) was 235.0 ms, the “T2 (ms) μ” value ([7]; 0.50 % Wt, 41.27 mM) was 215.0 ms and the “T1 (ms) μ” value ([7]; 0.75 % Wt, 61.90 mM) was 172.0 ms. The “T2 (ms) μ” value ([7]; 0.75 % Wt, 61.90 mM) was 153.0 ms, the “T1 (ms) μ” value ([7]; 1.00 % Wt, 82.53 mM) was 130.0 ms and the “T2 (ms) μ” value ([7]; 1.00 % Wt, 82.53 mM) was 120.0 ms. For the same compound, the T1 relaxation time ([7]; 10%-825 mM) was 61 ms, the “relaxivity r1, Slope μ” value [8] was 0.070 mM⁻¹ s⁻¹ and the “T1 (ms) μ” value ([8]; 0.10 % Wt, 8.25 mM) was 866.0 ms. For the same compound, the “T2 (ms) μ” value ([8]; 0.10 % Wt, 8.25 mM) was 530.0 ms, the “T1 (ms) μ” value ([8]; 0.30 % Wt, 24.76 mM) was 432.0 ms and the “T2 (ms) μ” value ([8]; 0.30 % Wt, 24.76 mM) was 215.0 ms. The “T1 (ms) μ” value ([8]; 0.50 % Wt, 41.27 mM) was 288.0 ms, the “T2 (ms) μ” value ([8]; 0.50 % Wt, 41.27 mM) was 124.0 ms and the “T1 (ms) μ” value ([8]; 0.75 % Wt, 61.90 mM) was 202.0 ms. The “T2 (ms) μ” value ([8]; 0.75 % Wt, 61.90 mM) was 104.0 ms, the “T1 (ms) μ” value ([8]; 1.00 % Wt, 82.53 mM) was 164.0 ms and the “T2 (ms) μ” value ([8]; 1.00 % Wt, 82.53 mM) was 105.0 ms. For the same compound, the “R1 (T1 relaxivity estimate)” value [9] was “R1 = 0.0979”, the T1 relaxivity [9] was 0.0979 mM/s and the “T2* relaxivity” value [9] was ~0.618 mM/s. It also gave a T2 relaxivity [9] of 0.502 mM/s, a T1 ([9]; 8.25 mM) of 980.805 and a T2 ([9]; 8.25 mM) of 74.85. The “T2*” value ([9]; 8.25 mM) was 141.415, the “T2*-2” value ([9]; 8.25 mM) was 146.68 and the T1 ([9]; 24.76 mM) was 524.66. The T2 ([9]; 24.76 mM) was 45.175, the “T2*” value ([9]; 24.76 mM) was 50.42 and the “T2*-2” value ([9]; 24.76 mM) was 52.755. For the same compound, the T1 ([9]; 41.27 mM) was 533.955, the T2 ([9]; 41.27 mM) was 31.14 and the “T2*” value ([9]; 41.27 mM) was 32.37. The “T2*-2” value ([9]; 41.27 mM) was 34.135, the T1 ([9]; 61.9 mM) was 160.45 and the T2 ([9]; 61.9 mM) was 22.96. The “T2*” value ([9]; 61.9 mM) was 24.85, the “T2*-2” value ([9]; 61.9 mM) was 25.55 and the T1 ([9]; 82.53 mM) was 116.5. The T2 ([9]; 82.53 mM) was 20.84, the “T2*” value ([9]; 82.53 mM) was 17.99 and the “T2*-2” value ([9]; 82.53 mM) was 17.64. The “degradation or breakdown over time: difference between two R1 measurements” value [10] was “no statistically significant difference was observed”.
For L-PG-Bz-DTPA-Gd, the T1 relaxivity [11] was 25 mM⁻¹ s⁻¹ and the “T1 relaxivity, times greater than that of Gd-DTPA” value [11] was “more than 6 times”.

Reference: patent publication US8529872B2, “Seeds and markers for use in imaging” (Board of Regents, The University of Texas System, priority 2007, dated 2013)
